Experimental data from EP1792623B1, “Use of extracts and constituents of leontopodium as enhancers of cholinergic function” (Leopold-Franzens-Universität Innsbruck, priority 2005, dated 2007).
Structures can show the parent of a compound that is named as a salt.

What was measured:
[1] = tested on: acetylcholinesterase; assay type: biochemical; conditions: 100 µM, after 60 min, in comparison to medium control, n=4
Method: Experiments are carried out applying Ellman's method in a 96-well microplate assay described by Ingkaninan et al, Journal of Chromatography A 827 (2000) p. 6173 and Rhee et al, Journal of Chromatography A 915 (2001) p. 217-223. In addition to buffer A described above, a buffer containing 0.1 M NaCl and 0.02 M MgClx2.6 H2O in buffer A is used for preparing a 3 mM solution of DTNB. For the microplate assay the substrate ATCI is dissolved 15 mM in water (HPLC grade). The enzyme stock solution is diluted with buffer A to get 0.22 U/ml. In the 96-well plates, 25 µl of 15 mM ATCl, 125 µl of 3 mM DTNB, 50 µl of buffer A, and 25 µl of sample (10 mM in MeOH, respectively DMSO (dimethylsulfoxide), diluted ten times with buffer A) are added. […] […] The absorbance of the product (2-nitrobenzoate-5-mercapto thioline) is measured at 405 nm with a Chameleon 5025 (Hidex, Finland) microplate reader 0, 15, 30, 45 and 60 minutes after adding 25 µl of 0.22 U/ml acetylcholinesterase-solution to the reaction mixture. All experiments are performed 4 times (n=4) and the data are statistically processed using the SPSS 11.5 program package. Percentage of inhibition is calculated by comparing the rates for the sample to the blank (10% MeOH, resp. DMSO, in buffer).

[2] = tested on: C56BL/6N female, 3-month mice; test: T-maze continuous alternation task; assay type: in vivo
Method: (§1) Animals: C56BL/6N female, 3-month mice, weighing 20 - 27 g, were used in the present study. The animals were housed in groups of six to ten in cages (40 (L) x 25 (W) x 15 (H) cm) placed in a room at a constant temperature (22±1 °C), 12-light/ 12-dark cycle (07:00-19:00 h), with food and water ad libitum. Experiments were conducted between 09:00 and 16:00h.
(§2) Surgery: Mice were anaesthetized with Pentobarbital sodium (60 mg/kg, i.p.) and placed in a stereotaxic frame. A guide cannula (gauge 25, o.d. 0.52 mm, i.d, 0.26 mm and 7 mm long) was stereotaxically implanted through a hole on the skull into the brain area 0.5 mm higher than the third cerebral ventricle (-0.1 mm posterior, 0.8 mm lateral to bregma, -2.2 mm ventral to the dura) (Franklin KBJ, Paxinos G (1997) The mouse brain in stereotaxic coordinates. Academic Press San Diego). Guide cannula was secured to the skull using two small screws and dental cement. The microinjector (Hamilton gauge 32, o.d. 0.24 mm and i.d. 0.11 mm, 7.5 mm long) protruded 0.5 mm from the tip of the guide cannula to reach the cerebral ventricle. Mice recovered for 5 days before any experimentation was done.
(§3) Drugs: Scopolamine hydrobromide (Sigma, St. Louis, MO, U.S.A.) was dissolved in saline. Isocomene was dissolved in vehicle solution (3 parts DMSO : 7 parts sterile water). The animals were randomly divided into experimental groups and administered a cerebral ventricle injection of saline, scopolamine, isocomene or scopolamine and isocomene in a volume µl during 1 min. The injector was left in place an extra 1 min for drug diffusion after injection. These substances and vehicle were injected 15 min prior to the test.
Experimental design and drug application: Animals were randomly divided into three experimental groups (6-9 mice per group) as follows: vehicle; scopolamine hybrobromide 20 µg (50 nmol) in 1µl ICV, isocomene 8.16 µg (40 nmol) in 2µl ICV, and scopolamine hybrobromide 20 µg plus isocomene 2 µg ICV. […]

[3] = tested on: C56BL/6N female, 3-month mice; test: Object recognition task (scopolamine-induced learning deficit); assay type: in vivo
Method: as §1, §2, §3
Experimental design and drug application: Animals were randomly divided into […] experimental groups (6-9 mice per group) as follows: vehicle; scopolamine hybrobromide 20 µg (50 nmol) in 1µl ICV, isocomene 8.16 µg (40 nmol) in 2µl ICV, and scopolamine hybrobromide 20 µg plus isocomene 2 µg ICV. All substances were injected 15 min before the test (T-maze and open field) or before the training trial T1 (object recognition test) through the 7.5 mm long injector connected with i.d. 0.28 mm polyethylene tubing to 5 µl Hamilton syringe.
Apparatus: The test apparatus consisted of a box made of Plexiglas (40 (L) x 25 (W) x 15 (H) cm), which was illuminated by a lamp above the box. In the different parts of the apparatus, the light intensity was equal at 100 lux. The objects to be discriminated were made of plastic or metal, were in the different shapes: cubes and cylinders 1.5-cm high in white or green colour; they could not be displaced by mice. In addition, these objects had no genuine significance for mice and had never been associated with a reinforcement.
Procedure: The object recognition test was performed as described elsewhere (Ennaceur A, Delacour J (1988) A new one-trial test for neurobiological studies of memory in rats. 1: Behavioural data. Behav Brain Res. 31: 47-59). On the day before testing, the animals were allowed to explore the apparatus for 10 min (without objects), while on the testing day, a session of two 10-min trials was given. During the training trial (sample trial) (T1), two identical objects were placed opposite sides 8 cm from the short walls. A mouse was placed in the middle of apparatus and was left to explore these two identical objects in 10 min. After T1, the mouse was put back in its home cage and a 24-hour inter-trial interval was given. […]

[4] = isocomene 8.16 µg ICV in mice given scopolamine 20 µg ICV
[5] = scopolamine 20 µg ICV alone, T2

Compound | inhibition (%) [1] [%] | further results
C=C(C)C1COc2cc3oc(=O)ccc3c(OC)c2O1 (centres unmarked) [5-methoxy-obliquin] | 3.4 | –
β -isocomene | 40.8 | –
(4a,7b,8a,9b,15a)-7,9-dihydroxy-15-{[(2Z)-2-methylbut-2-enoyl]oxy} kaur-16-en-19-oate | 53.7 | –
C/C=C(/C)C(=O)OC[C@H]1[C@@H](Cc2ccc(OC)c(OC)c2)CO[C@@H]1c1cc(OC)c(OC)c(OC)c1 [[(2S,3R,4R)-4-(3,4-dimethoxy-benzyl)-2-(3,4,5-trimethoxy-phenyl)tetrahydrofuran-3-yl]methyl-(2Z)-2-methylbut-2-en-oate] | 5.0 | –
bisabolan E | 56.9 | –
C=C(CO)[C@H]1Oc2ccc(C(C)=O)cc2[C@H]1O[C@@H]1O[C@H](CO)[C@@H](O)[C@H](O)[C@H]1O (relative stereo) [1-{(2R*,3R*)-2-[1-(hydroxymethyl)vinyl]-3-(β-D-gluco-pyranosyloxy)-2,3-dihydro-1-benzofuran-5-yl}-ethanone] | -0.6 | –
isocomene | 39.6 | alternation rate ([2]; 8.16 µg isocomene ICV alone, mean ± SEM, control mice 52 ± 2.46 %): 69.96 ± 2.42%; alternation rate [2, 4]: abolished this effect of scopolamine; discrimination index [3, 4]: potently increased; exploration ratio [3, 4]: potently increased
C=C(C)C1COc2cc3oc(=O)ccc3cc2O1 (centres unmarked) [obliquine] | 18.1 | –
C[C@@H]1CC[C@@H]2C(C)(C)C[C@]3(C)CC=C[C@]123 [silphinene] | 3.2 | –
CN1[C@@H]2C[C@@H](OC(=O)[C@H](CO)c3ccccc3)C[C@H]1[C@@H]1O[C@@H]12 [Scopolamine, Scopolamine hydrobromide] | – | alternation rate ([2]; scopolamine 20 µg ICV alone): pronounced decrease in alternation rate; discrimination index [3, 5]: zero; exploration ratio [3, 5]: ~1.0; exploration time ([3]; scopolamine 20 µg ICV alone, vs vehicle-treated control mice): no significant difference
C/C=C(/C)C(=O)OC[C@H]1[C@@H](Cc2cc(OC)c(OC)c(OC)c2)CO[C@@H]1c1cc(OC)c(OC)c(OC)c1 [[(2S,3R,4R)-4-(3,4,5-trimethoxy-benzyl)-2-(3,4,5-trimethoxy-phenyl)tetrahydrofuran-3-yl]methyl-(2Z)-2-methylbut-2-en-oate] | -6.4 | –
15-acetoxy-modhephene | 56.4 | –
C/C=C(/C)C(=O)OC[C@H]1[C@@H](Cc2ccc(OC)c(OC)c2)CO[C@@H]1c1ccc(OC)c(OC)c1 [[(2S,3R,4R)-4-(3,4-dimethoxy-benzyl)-2-(3,4-dimethoxy-phenyl)tetrahydrofuran-3-yl]methyl-(2Z)-2-methylbut-2-en-oate] | 17.5 | –
CC(=O)OCC1=C[C@]2(C)CCC3[C@H](C)CCC32C1C (relative stereo) [[(1R*,3aS,6R)-1,3a,6-trimethyl-1,3a,4,5,5a,6,7,8-octahydrocyclo-penta[c]pentalen-2-yl]methylacetat] | 61.8 | –
C=C(C)C1COc2cc3oc(=O)ccc3c(O)c2O1 (centres unmarked) [5-hydroxy-obliquin] | 1.9 | –
ent-kaur-16-enic-19-acid | 35.6 | –
bisabolan A | 23.3 | –
CC1=C[C@@H]2[C@@H](CC1)[C@@](C)(O)CC[C@H]2C(C)C [t-Cadinol] | 10.3 | –
1-acetyloxy-3-angeloyloxy-(4E,6E)-tetradeca-4,6-dien-8,10,12-triyne and the 4E,6Z isomer | 16.5 | –
